Measured values published in the NIST ThermoML archive (doi:10.1016/j.jct.2017.11.011).

Experiments:
[1] = relative permittivity at various frequencies (dimensionless); settings: 100 kPa, Liquid, Frequency=1 MHz, Parallel plate capacitor
[2] = 101.33 kPa, Liquid, Vibrating tube method
[3] = relative permittivity at various frequencies (dimensionless); xn = mol fraction of the nth substance listed; settings: 100 kPa, Liquid, Frequency=1 MHz, Parallel plate capacitor

Nc1ccccc1 [aniline]
Settings | mass density, 293.15 K [kg/m3] | mass density, 298.1 K [kg/m3] | mass density, 303.15 K [kg/m3] | relative permittivity, 293.15 K | relative permittivity, 298.15 K | relative permittivity, 303.15 K
[1] | – | – | – | 7.117 | 6.984 | 6.856
[2] | 1021.79 | 1017.52 | 1013.19 | – | – | –

Nc1ccccc1 [aniline] + CN(C)C=O
relative permittivity, [3]
Settings | 293.15 K | 298.15 K | 303.15 K
x2 = 0 | 7.117 | 6.984 | 6.856
x2 = 0.0533 | 8.91 | 8.729 | 8.557
x2 = 0.1046 | 10.653 | 10.426 | 10.2
x2 = 0.1562 | 12.414 | 12.144 | 11.876
x2 = 0.2033 | 14.004 | 13.689 | 13.383
x2 = 0.3015 | 17.269 | 16.874 | 16.485
x2 = 0.4071 | 20.625 | 20.146 | 19.678
x2 = 0.5013 | 23.428 | 22.895 | 22.371
x2 = 0.5999 | 26.184 | 25.601 | 25.026
x2 = 0.6989 | 28.955 | 28.31 | 27.687
x2 = 0.7931 | 31.604 | 30.92 | 30.246
x2 = 0.8431 | 33.12 | 32.402 | 31.69
x2 = 0.8982 | 34.833 | 34.071 | 33.315
x2 = 0.9459 | 36.439 | 35.62 | 34.821

CN(C)C=O [dimethylformamide]
[1]
Settings | relative permittivity
293.15 K | 38.334
298.15 K | 37.44
303.15 K | 36.58

CN(C)C=O [dimethylformamide] + Nc1ccccc1
[3], x1 = 1
Settings | relative permittivity
293.15 K | 38.334
298.15 K | 37.44
303.15 K | 36.58
